Measurements: patent EP4810040A2, “INHIBITORS OF APOL1 AND METHODS OF USING SAME” (priority 2020, dated 2022)

Biological target: T1, APOL1 G1 (Homo sapiens, UniProt O14791, I384M/S342G)
T1 sequence (O14791 28-398 S342G/I384M): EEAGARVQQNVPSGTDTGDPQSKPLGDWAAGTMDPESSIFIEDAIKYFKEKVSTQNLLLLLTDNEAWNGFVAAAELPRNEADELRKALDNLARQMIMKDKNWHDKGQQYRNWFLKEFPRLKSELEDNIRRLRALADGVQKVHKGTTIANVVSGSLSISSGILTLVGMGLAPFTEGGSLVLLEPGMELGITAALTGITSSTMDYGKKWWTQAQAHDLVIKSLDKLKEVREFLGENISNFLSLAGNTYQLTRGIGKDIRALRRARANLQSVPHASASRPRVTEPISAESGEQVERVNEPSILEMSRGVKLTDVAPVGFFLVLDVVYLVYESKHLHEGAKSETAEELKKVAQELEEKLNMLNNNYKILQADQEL
Test: MultiTox-Fluor Multiplex Cytotoxicity Assay, tet-inducible APOL1 G1 T-REx-HEK293 cells
Format: cell-based
Parameters: expressed in transfected cells; host or cells: T-REx HEK293, clone G1 DC3.25 (pAAVS1-Puro-APOL1 G1)
Conditions: for IC90: HEK293, Multi-Tox Assay, APOL1 variant (G0/G1/G2) of the HEK293 cells not given, read-out: Multi-Tox Assay IC90; for Multi-Tox Assay Max Activity (%): APOL1 variant not given
Procedure: The MultiTox-Fluor Multiplex Cytotoxicity Assay is a single-reagent-addition, homogeneous, fluorescence assay that measures the number of live and dead cells simultaneously in culture wells. The assay measures cell viability and cytotoxicity by detecting two distinct protease activities. The live-cell protease activity is restricted to intact viable cells and is measured using a fluorogenic, cell-permeant peptide glycyl-phenylalanylamino fluorocoumarin (GF-AFC) substrate. The substrate enters intact cells, where it is cleaved to generate a fluorescent signal proportional to the number of living cells. […] A second, cell-impermeant, fluorogenic peptide substrate (bis-AAF-R110 Substrate) is used to measure dead-cell protease that has been released from cells that have lost membrane integrity. A ratio of dead to live cells is used to normalize data.
Briefly, the tet-inducible transgenic APOL1 T-REx-HEK293 cell lines were incubated with 50 ng/mL tet to induce APOL1 in the presence of 3-(2-(4-fluorophenyl)-1H-indol-3-yl)-N-((3S,4R)-4-hydroxy-2-oxopyrrolidin-3-yl)propenamide at […], 0.0045, 0.0015, 0.0005 µM in duplicate for 24 hours in a humidified 37°C incubator. The MultiTox reagent was added to each well and placed back in the incubator for an additional 30 minutes. The plate was read on the EnVision plate reader. A ratio of dead to live cells was used to normalize, and data was imported, analyzed and fit using Genedata Screener (Basel, Switzerland) software. Data was normalized using percent of control, no tet (100% viability), and 50 ng/mL tet treated (0% viability),and fit using Smart Fit. The reagents, methods, and complete protocol for the MultiTox assay are described below. Table 42. Reagents Used in the Multi-Tox Assay
Human embryonic kidney (HEK293) cell lines containing a tet-inducible expression system (T-REx™; Invitrogen, Carlsbad, CA) and Adeno-associated virus site 1 pAA VS1-Puro-APOL1 G0 or pAAVS1-Puro-APOL1 G1 or pAAVS1-Puro-APOL1 G2 Clones G0 DC2.13, G1 DC3.25, and G2 DC4.44 were grown in a T-225 flask at ~90% confluency in cell growth media (DMEM, 10% Tet-free FBS, 2 mM L-glutamine, 100 Units/mL penicillin-streptomycin, 5 µg/mL blasticidin S HCl, 1 µg/mL puromycin dihydrochloride). Cells were washed with DPBS and then trypsinized to dissociate from the flask. Media was used to quench the trypsin, cells were then pelleted at 200g and resuspended in fresh cell assay media (DMEM, 2% Tet-free FBS, 2 mM L-glutamine, 100 Units/mL penicillin-streptomycin). Cells were counted and diluted to 1.17 x 10^6 cells/mL. 20 µL of cells (23,400/well) were dispensed to every well of a 384-well Poly-D-Lysine coated plate using the Multidrop dispenser. The plates were then incubated at room temperature for one hour.
Tetracycline is needed to induce APOL1 expression. 1 mg/mL tet stock in water was diluted to 250 ng/mL (5X) in cell assay media. 60 µL of cell assay media (no tet control) was dispensed in columns 1 and 24, and 60 µL of 5X tet was dispensed in 384-PP-round bottom plate in columns 2 to 23 with the Multidrop dispenser.
Assay ready plates from the Global Compound Archive were ordered using template 384_APOL1Cell_DR10n2_50uM_v3. Compounds were dispensed at 200 nL in DMSO. The final top concentration was 10 µM with a 10 point 3-fold dilution in duplicate in the MultiTox assay.
20 µL were transferred from the 5X tet plate to the ARP and mixed, then 5 µL of 5X tet and the compounds were transferred to the cell plate and mixed using the Bravo. The cell plate was placed in the humidified 37°C 5% CO2 incubator for 24 hours.
The MultiTox-Fluor Multiplex Cytotoxicity Assay was performed in accordance with the manufacturer's protocol. […]

Row | Structure (SMILES) | IC90 | Multi-Tox Assay Max Activity (%)
1 | C[C@H]1C[C@@]2(C[C@@H](c3cnn4ccccc34)N1)OCCc1cc(Cl)sc12 (racemic) [Compound 117] | 50 to 500 nM | 
2 | C[C@H]1C[C@@]2(C[C@@H](c3ccn(C)n3)N1)OCCc1cc(Cl)sc12 (racemic) [Compound 118] | 50 to 500 nM | 99.3%
3 | C[C@H]1C[C@@]2(C[C@@H](c3cc(C4CC4)n[nH]3)N1)OCCc1cc(Cl)sc12 (racemic) [Compound 120] | 50 to 500 nM | 
4 | C[C@H]1C[C@@]2(C[C@@H](c3ccc[nH]c3=O)N1)OCCc1cc(Cl)sc12 (racemic) [Compound 121] | 50 to 500 nM | 
5 | C[C@H]1C[C@@]2(C[C@@H](c3ccc(C(F)(F)F)nc3)N1)OCCc1cc(Cl)sc12 (racemic) [Compound 123] | 50 to 500 nM | 100.0%
6 | C[C@H]1C[C@@]2(C[C@@H](c3cn(C)c(=O)n(C)c3=O)N1)OCCc1cc(Cl)sc12 (racemic) [Compound 124] | 50 to 500 nM | 99.3%
7 | Cc1cc(O)ncc1[C@@H]1C[C@]2(C[C@H](C)N1)OCCc1cc(Cl)sc12 (racemic) [Compound 125] | 50 to 500 nM | 99.7%
8 | Cc1cccc([C@@H]2C[C@]3(C[C@H](C)N2)OCCc2cc(Cl)sc23)n1 (racemic) [Compound 126] | 50 to 500 nM | 99.4%
9 | C[C@H]1C[C@@]2(C[C@@H](c3ccnc(N(C)C)n3)N1)OCCc1cc(Cl)sc12 (racemic) [Compound 127] | 50 to 500 nM | 99.3%
10 | CCc1nc([C@@H]2C[C@]3(C[C@H](C)N2)OCCc2cc(Cl)sc23)c[nH]1 (racemic) [Compound 128] | 50 to 500 nM | 99.3%
11 | C[C@H]1C[C@@]2(C[C@@H](c3cnc(N4CCN(C)CC4)nc3)N1)OCCc1cc(Cl)sc12 (racemic) [Compound 129] | 50 to 500 nM | 100.0%
12 | C[C@H]1C[C@@]2(C[C@@H](c3c[nH]c(C4CC4)n3)N1)OCCc1cc(Cl)sc12 (racemic) [Compound 130] | 50 to 500 nM | 
13 | C[C@H]1C[C@@]2(C[C@@H](c3cc4n(n3)CCCO4)N1)OCCc1cc(Cl)sc12 (racemic) [Compound 131] | 50 to 500 nM | 99.3%
14 | Cc1nocc1[C@@H]1C[C@]2(C[C@H](C)N1)OCCc1cc(Cl)sc12 (racemic) [Compound 132] | 50 to 500 nM | 99.3%
15 | C[C@H]1C[C@@]2(C[C@@H](c3cn(CC(N)=O)nn3)N1)OCCc1cc(Cl)sc12 (racemic) [Compound 133] | 50 to 500 nM | 99.7%
16 | Cc1cnc([C@@H]2C[C@]3(C[C@H](C)N2)OCCc2cc(Cl)sc23)o1 (racemic) [Compound 134] | 50 to 500 nM | 99.2%
17 | Cc1c([C@@H]2C[C@]3(C[C@H](C)N2)OCCc2cc(Cl)sc23)cnn1C (racemic) [Compound 136] | 50 to 500 nM | 98.7%
18 | COc1cc(O)cc([C@@H]2C[C@]3(C[C@H](C)N2)OCCc2cc(Cl)sc23)c1 (racemic) [Compound 137] | 50 to 500 nM | 98.7%
19 | Cc1cc([C@@H]2C[C@]3(C[C@H](C)N2)OCCc2cc(Cl)sc23)nc(N(C)C)n1 (racemic) [Compound 138] | 50 to 500 nM | 98.0%

Row | Structure (SMILES) | IC90 | Multi-Tox Assay Max Activity (%)
20 | Cc1ccnc([C@@H]2C[C@]3(C[C@H](C)N2)OCCc2cc(Cl)sc23)c1 (racemic) [Compound 139] | 50 to 500 nM | 98.0%
21 | C[C@H]1C[C@@]2(C[C@@H](c3cnc(C4CCOCC4)o3)N1)OCCc1cc(Cl)sc12 (racemic) [Compound 140] | 50 to 500 nM | 99.7%
22 | C[C@H]1C[C@@]2(C[C@@H](c3cccc4[nH]c(=O)oc34)N1)OCCc1cc(Cl)sc12 (racemic) [Compound 141] | 50 to 500 nM | 96.3%
23 | Cc1nn(C)cc1[C@@H]1C[C@]2(C[C@H](C)N1)OCCc1cc(Cl)sc12 (racemic) [Compound 142] | 50 to 500 nM | 
24 | Cc1nc([C@@H]2C[C@]3(C[C@H](C)N2)OCCc2cc(Cl)sc23)oc1C (racemic) [Compound 144] | > 500 nM | 98.0%
25 | COc1ccnc([C@@H]2C[C@]3(C[C@H](C)N2)OCCc2cc(Cl)sc23)n1 (racemic) [Compound 145] | > 500 nM | 97.7%
26 | C[C@H]1C[C@@]2(C[C@@H](c3cccc(S(C)(=O)=O)c3)N1)OCCc1cc(Cl)sc12 (racemic) [Compound 146] | 50 to 500 nM | 97.0%
27 | C[C@H]1C[C@@]2(C[C@@H](c3cccc(S(N)(=O)=O)c3)N1)OCCc1cc(Cl)sc12 (racemic) [Compound 147] | > 500 nM | 92.3%
28 | C[C@H]1C[C@@]2(C[C@@H](c3cccc(-c4cn[nH]c4)c3)N1)OCCc1cc(Cl)sc12 (racemic) [Compound 148] | 50 to 500 nM | 97.0%
29 | C[C@H]1C[C@@]2(C[C@@H](c3cnc4n3CCOC4)N1)OCCc1cc(Cl)sc12 (racemic) [Compound 149] | > 500 nM | 95.7%
30 | Cc1nc([C@@H]2C[C@]3(C[C@H](C)N2)OCCc2cc(Cl)sc23)[nH]c1C (racemic) [Compound 150] | > 500 nM | 96.3%
31 | C[C@H]1C[C@@]2(C[C@@H](c3cccc(=O)[nH]3)N1)OCCc1cc(Cl)sc12 (racemic) [Compound 151] | > 500 nM | 96.2%
32 | C[C@H]1C[C@@]2(C[C@@H](c3ccnn3C)N1)OCCc1cc(Cl)sc12 (racemic) [Compound 152] | > 500 nM | 98.0%
33 | CCc1c[nH]c([C@@H]2C[C@]3(C[C@H](C)N2)OCCc2cc(Cl)sc23)n1 (racemic) [Compound 153] | > 500 nM | 96.0%
34 | COc1nn(C)cc1[C@@H]1C[C@]2(C[C@H](C)N1)OCCc1cc(Cl)sc12 (racemic) [Compound 154] | > 500 nM | 94.0%
35 | Cc1coc([C@@H]2C[C@]3(C[C@H](C)N2)OCCc2cc(Cl)sc23)n1 (racemic) [Compound 155] | > 500 nM | 95.2%
36 | Cc1nc([C@@H]2C[C@]3(C[C@H](C)N2)OCCc2cc(Cl)sc23)c[nH]1 (racemic) [Compound 156] | > 500 nM | 93.0%
37 | Cc1ncoc1[C@@H]1C[C@]2(C[C@H](C)N1)OCCc1cc(Cl)sc12 (racemic) [Compound 157] | > 500 nM | 96.3%
